In experiment [1] the test system is insulin-resistant isolated mouse hepatocytes. Nature of the experiment: ROS formation assay (isolated primary hepatocytes). Type of experiment: cell-based. The settings on record: 30 mM glucose 24 h; peptide 10 pM, 100 pM and 100 nM (FIG. 9A). How it is done:
FIG. 9A is a bar graph showing suppression of the production of reactive oxygen species (ROS) by the pentapeptide GLP-1(32-36)amide in insulin-resistant isolated mouse hepatocytes. Hepatocytes were rendered insulin-resistant by their pre-incubation in 30 mM glucose. Primary hepatocytes from C57BL/6J mice were seeded at 2×10^5 cell per well in twelve-well plates and treated for 24 h with 30 mM glucose in the absence of presence of GLP-1(32-36)amide (10 pM, 100 pM and 100 nM). To measure ROS levels cells were washed twice in HBSS (Hanks' Balance Salt Solution) and incubated with 10 uM 5-(and 6)-carboxy-2′,7′-dichlorohydro-fluorescein diacetate (CM-H2DCFDA) (Molecular Probes) for 45 minutes. The media were removed and cells were lysed. ROS was measured in the cell lysates using a spectrofluorometer (485 nm/535 nm). Data were normalized to values obtained from untreated controls. The data shown are the means of two independent hepatocyte isolations+/−SEMs.
Primary hepatocytes from diet-induced obese (DIO) and C57BL/6J mice were seeded in 12-well plates at a density of 2×10^5/well for 24 h. C57BL/6J hepatocytes were treated with 30 mM glucose in the absence or presence of GLP-1(32-36)amide for 20 to 24 h and compared to DIO hepatocytes treated with GLP-1(32-36)amide. […] ROS was measured in the cell lysates using a spectrofluorometer (485 nm/535 nm). […]

Experiment [2] deals with diet-induced obese mice. The experiment can be described thus: Fasting plasma glucose and insulin measurements. Type of experiment: in vivo, mouse. The settings on record: 16 h fast, after 12 weeks infusion, 29 weeks on VHFD. The source says:
FIGS. 5A-B are a pair of bar graphs showing that GLP-1(32-36)amide attenuates the development of fasting hyperglycemia and hyperinsulinemia in high fat-fed mice. Mice fed the VHFD develop hyperglycemia, hyperinsulinemia, diabetes, and insulin resistance during weeks 15 to 29 of diet-induced obesity (21-35 weeks of age, respectively). A 12-week infusion of either control vehicle or pentapeptide started at 17 weeks on high-fat diet (23 weeks of age). FIG. 5A: Fasting plasma glucose levels *p<0.0004 vehicle vs. GLP-1(32-36)a. FIG. 5B: Fasting insulin levels *p<0.042 vehicle vs. GLP-1(32-36)a. The studies are in mice fed a VHFD for 15 weeks, two weeks before beginning the continuous infusions of either control vehicle or pentapeptide. Continuous infusions of vehicle or pentapeptide GLP-1(32-36)amide were give during weeks 17 to 29 of diet (23 to 35 weeks of age). Weeks denoted on the ordinate scales refers to weeks of age. N=6 mice per group. Values are means+/−SEMs.
Plasma obtained by tail nick from mice fasted for 16 hrs was assayed for glucose by using the one touch ultra-mini glucometer (Life Scan, Johnson and Johnson company) and for insulin with a rat/mouse Elisa kit (Crystal Chem, Downers Grove, Ill.).
Fasting immunoreactive insulin levels: whole blood samples were spun in a refrigerated microfuge at 14,000 rpm for 10 minutes and transferred to a clean tube. […]

Experiment [3] has as its system diet-induced obese mice. Nature of the experiment: Intraperitoneal glucose tolerance test (ipGTT). Type of experiment: in vivo, mouse. The settings on record: glucose 2 g/kg BW ip, overnight fasted, VHFD 24 weeks, 16 weeks infusion (FIG. 5C). The protocol:
FIGS. 5C-D are a pair of line graphs Plasma glucose levels (FIG. 5C) and (FIG. 5D) Plasma insulin levels after an intraperitoneal glucose administration ([…] BW ip) in overnight fasted mice fed in VHFD for 24-weeks and 16-weeks of continuous infusions of vehicle or GLP-1(32-36)amide. ***p<4E-03 vehicle vs. GLP-1(32-36)amide, *p<0.01 vehicle vs. GLP-1(32-36)amide, **p<0.004 vehicle vs. GLP-1(32-36)amide, *****p<1.7E-05 vehicle vs. GLP-1(32-36)amide, ****p<6.7 E-04 vehicle vs. GLP-1(32-36)amide.
Mice were maintained in a normal light/dark cycle according to the standard protocols of the MGH Animal Care and Use Committee. Mice were tested with age matched or litter mate controls and 6 mice per group are required. […] The following morning the mice were prepared for the glucose tolerance test: animals were weighed, the tail was nicked with a fresh razor blade by a horizontal cut of the very end, ˜35 to 50 microliters of blood is massaged from the tail to an eppendorf tube which is immediately placed on ice, baseline blood glucose is measured by the glucose oxidase method using a Glucometer Elite glucometer, and 2 grams/kg body weight of 20% D-glucose is drawn up in a Beckton Dickenson D 29 gage ½″ insulin syringe (one unit of D-glucose for every gram of body weight). Animals were then transferred to individually labeled 1000 cc cardboard soup cups with the lid liners removed.
Following animal preparation, glucose was injected into the intraperitoneal cavity. At 10, 20, 30, 60, 120, and 140 minutes blood glucose is sampled from the tail of each mouse by gently massaging a small drop of blood onto the glucometer strip. Glucose injections and blood glucose sampling is timed to take approximately the same amount of time per animal (i.e. 25 animals are injected in 12 minutes and blood glucose sampling of those same 25 animals should also take about 12 minutes) so that the sample times are accurate for each animal.

The test system of experiment [4] is H4IIe hepatoma cells. Nature of the experiment: ROS formation assay (H4IIe hepatoma cells). Type of experiment: cell-based. As to conditions: 0.2 mM palmitate 24 hr, 100 pM peptide (FIG. 9B). The protocol:
FIG. 9B is a bar graph showing inhibition of the production of ROS in H4IIe hepatoma cells. BSA n=14. palmitate n=13. 32-36/palmitate n=12. *p<0.005 palmitate vs BSA, # p<0.03 palmitate vs GLP-1(32-36)a/palmitate
H4IIe cells were seeded in 12-well plates at a density of 1×10^4/well and incubated overnight in media containing 5.0 mM glucose. Media was then supplemented with 0.20 mM palmitate in BSA, with and without 100 pM GLP-1(32-36)amide and incubated for an additional 24 h. Intracellular ROS was measured by 5-(and 6)-carboxy-2′,7′-dichlorohydro-fluorescein diacetate (CM-H2DCFDA) (Molecular Probes) as follows. Cells were washed twice in HBSS (Hanks' Balance Salt Solution) and incubated with 10 uM CM-H2DCFDA for 45 minutes. The media were removed and cells were lysed. ROS was measured in the cell lysates using a spectrofluorometer (485 nm/535 nm). Data were normalized to values obtained from the cells treated with palmitate. BSA n=14. Palmitate n=13. 32-36/Palmitate n=12.

Entries after “also recorded” stand apart in the source; their conditions may differ. Where no end group is shown, it is not given here.

As for “LVKGRamide (LVKGR-NH2) [GLP-1(32-36)amide, pentapeptide derived from the C-terminus of the glucoincretin hormone GLP-1]”, the ROS levels result in experiment [1] is “prevented the rise in ROS levels; also recorded: suppression”. This substance gave a fasting plasma glucose in experiment [2] (vehicle 8.8 (FIG. 5A)) of 5.5 mM. The fasting plasma insulin in experiment [2] (vehicle 300 (FIG. 5B)) is on record as 250 pM. Also, the “glycemic response in ipGTT” value in experiment [3] was “normal”. Besides, the ROS production entry is “nearly completely normalizes” in experiment [4] and “inhibition” in experiment [4] (listed as GLP-1(32-36)a).

The record behind these values is patent US10137171B2, “Methods of treatment using a pentapeptide derived from the C-Terminus of Glucagon-Like Peptide 1 (GLP-1)” (The General Hospital Corporation, priority 2011, dated 2018).
